# Measurements taken from US20250082793A1, “MACROCYCLIC COMPOUNDS AND METHODS OF MAKING THE SAME” (JANSSEN BIOTECH, INC., priority 2021, published 2025).
# Assay: Chelation test with La^3+ (HPLC chromatograms prior and subsequent to mixing)
# Type: physicochemical
# Conditions: prior vs subsequent to mixing with La^3+
row,chelation of La^3+ indicated by shift in HPLC retention time,Compound
1,rapid chelation of La^3+ and Ac-225,"CC(C)CCC(c1cccc(C(=O)O)n1)N1CCOCCOCCN(Cc2cccc(C(=O)O)n2)CCOCCOCC1 (centres unmarked) [TOPA-[C7]-isopentyl, 6-((16-(1-(6-carboxypyridin-2-yl)-4-methylpentyl)-1,4,10,13-tetraoxa-7,16-diazacyclooctadecan-7-yl)methyl)picolinic acid]"
2,rapid chelation of La^3+,"O=C(O)c1cccc(CN2CCOCCOCCN(C(c3ccccc3)c3cccc(C(=O)O)n3)CCOCCOCC2)n1 (centres unmarked) [TOPA-[C7]-phenyl, 6-((16-((6-carboxypyridin-2-yl)(phenyl)methyl)-1,4,10,13-tetraoxa-7,16-diazacyclooctadecan-7-yl)methyl)picolinic acid]"
